Experimental data published in ChEMBL document CHEMBL1201862, “PubChem BioAssay data set” (2004).
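Results reflect a 48-hour exposure of cells in 96-well plates to compound at five concentrations. At the GI50, growth is halved.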 Calls of active or inactive are those of the source. No stated cut-off is given here; in the data, active = GI50 up to about 1.1 µM and inactive = higher.

Experiments:
Assay in all cases: growth of human tumour cells (NCI), 48 h
SF-539 = tested on: SF-539
UACC-257 = tested on: UACC-257
SK-MEL-2 = tested on: SK-MEL-2
HCC 2998 = tested on: HCC 2998
DMS-114 = tested on: DMS-114
ACHN = tested on: ACHN
RPMI-8226 = tested on: RPMI-8226
COLO 205 = tested on: COLO 205
SF-268 = tested on: SF-268
TK-10 = tested on: TK-10
HL-60 = tested on: HL-60
NCI-H460 = tested on: NCI-H460
A498 = tested on: A498
SNB-75 = tested on: SNB-75
HCT-15 = tested on: HCT-15
SN12C = tested on: SN12C
NCI-H226 = tested on: NCI-H226
MDA-N = tested on: MDA-N
SR = tested on: SR
BT-549 = tested on: BT-549

SMILES	GI50 (SF-539)	GI50 (UACC-257)	GI50 (SK-MEL-2)	GI50 (HCC 2998)	GI50 (DMS-114)	GI50 (ACHN)	GI50 (RPMI-8226)	GI50 (COLO 205)	GI50 (SF-268)	GI50 (TK-10)	GI50 (HL-60)	GI50 (NCI-H460)	GI50 (A498)	GI50 (SNB-75)	GI50 (HCT-15)	GI50 (SN12C)	GI50 (NCI-H226)	GI50 (MDA-N)	GI50 (SR)	GI50 (BT-549)
CCOC(=O)CCC1(C(=O)OC)CCCC1=O (stereo not given)	> 100 µM (inactive)	> 100 µM (inactive)	> 100 µM (inactive)	> 100 µM (inactive)	> 100 µM (inactive)	> 100 µM (inactive)	> 100 µM (inactive)	> 100 µM (inactive)	> 100 µM (inactive)	> 100 µM (inactive)	> 100 µM (inactive)	> 100 µM (inactive)	> 100 µM (inactive)	> 100 µM (inactive)	–	–	–	–	–	–
CCC(C)NC1=C(NC(C)=O)C(=O)c2ccccc2C1=O (stereo not given)	> 75 µM (inactive)	> 75 µM (inactive)	> 75 µM (inactive)	> 75 µM (inactive)	28.4 µM (inactive)	> 75 µM (inactive)	13.4 µM (inactive)	> 75 µM (inactive)	> 75 µM (inactive)	> 75 µM (inactive)	17.5 µM (inactive)	> 75 µM (inactive)	> 75 µM (inactive)	> 75 µM (inactive)	46.1 µM	> 75 µM (inactive)	> 75 µM (inactive)	–	–	–
O=C(NCCc1ccccc1)[C@H]1CCCC[C@@H]1CCO	> 100 µM (inactive)	> 100 µM (inactive)	> 100 µM (inactive)	> 100 µM (inactive)	–	> 100 µM (inactive)	> 100 µM (inactive)	> 100 µM (inactive)	> 100 µM (inactive)	> 100 µM (inactive)	> 100 µM (inactive)	> 100 µM (inactive)	> 100 µM (inactive)	> 100 µM (inactive)	> 100 µM	> 100 µM (inactive)	> 100 µM (inactive)	> 100 µM (inactive)	> 100 µM (inactive)	> 100 µM (inactive)
OC1c2ccccc2C2(O)C1C(c1ccccc1)C(c1ccccc1)C2(O)c1ccccc1 (stereo not given)	12.6 µM (inactive)	14.3 µM (inactive)	10.3 µM (inactive)	11.2 µM (inactive)	13.6 µM (inactive)	5.82 µM (inactive)	4.65 µM (inactive)	14 µM (inactive)	6.79 µM (inactive)	23.2 µM (inactive)	8.87 µM (inactive)	4.56 µM (inactive)	–	12.1 µM (inactive)	3.06 µM	11.4 µM (inactive)	–	–	–	–
Cc1ccccc1OC(C)C(=O)NN1C(=O)CSC1c1ccc(Cl)cc1 (stereo not given)	26.5 µM (inactive)	55 µM (inactive)	> 53.7 µM (inactive)	34.9 µM (inactive)	–	33 µM (inactive)	26.5 µM (inactive)	> 56.1 µM (inactive)	25.4 µM (inactive)	47.4 µM (inactive)	21.1 µM (inactive)	26.1 µM (inactive)	24 µM (inactive)	35.7 µM (inactive)	46.6 µM	17.5 µM (inactive)	> 49.1 µM (inactive)	60.3 µM (inactive)	5.47 µM (inactive)	44.8 µM (inactive)
Cc1cn(Cc2ccccc2CCO)c(=S)[nH]c1=O	> 100 µM (inactive)	> 100 µM (inactive)	> 100 µM (inactive)	–	> 100 µM (inactive)	> 100 µM (inactive)	> 100 µM (inactive)	> 100 µM (inactive)	> 100 µM (inactive)	> 100 µM (inactive)	> 100 µM (inactive)	> 100 µM (inactive)	> 100 µM (inactive)	> 100 µM (inactive)	> 100 µM	> 100 µM (inactive)	34.8 µM (inactive)	–	–	–
